# According to patent US20220175798A1, “COMPOSITIONS COMPRISING OXYGENATED CHOLESTEROL SULFATE AND AT LEAST ONE OF POLYALKYLENE GLYCOL, CARBOXYMETHYL CELLULOSE AND POLYOXYLGLYCERIDE” (Durect Corporation, priority 2016, published 2022):
# What was measured:
# [1] = test system: high fat diet (HFD)-fed hamsters; test: Pharmacodynamic study in HFD-fed Golden Syrian hamsters (serum chemistry, hepatic lipids, histopathology); type: in vivo
# Source text: The subjects for the study were 40 Golden Syrian male hamsters. Two cohorts were provided with either regular diet (RD) or high fat diet (HFD) for 10 weeks. 25HC3 S treatment was initiated at the start of Week 11. Group 1 remained on a regular diet while HFD-fed hamsters were randomly divided into three treatment groups (Groups 2-4; Table 20).
# The Vehicle was a solution of 0.5% (w/v) CMC and 0.05% (v/v) Tween-80 in water. Powdered 25HC3 S was constituted into the vehicle solution to result in drug concentrations of 2.5 and 10 mg/mL. The suspensions were homogenized for approximately 5 minutes being combined, with 10 second breaks every 30-40 seconds and swirled before dosing to maintain homogeneity. The formulated test article was prepared weekly and kept at room temperature.
# Hamsters were treated with 25HC3 S by daily oral gavage for 6 weeks while maintained on RD or HFD. Each hamster received daily doses of 25HC3S or vehicle by oral gavage (N=10/group). There were two dose groups (Groups 3 and 4): 10 and 50 mg/kg, as specified in Table 20, with dose volumes of 4 and 5 mL/kg, respectively.
# For pharmacodynamic measures of efficacy, clinical chemistry parameters were measured by collection of fasting serum throughout the study to assess the effects of HFD and 25HC3S treatment compared to animals on a RD and given the vehicle control.
# Assessments included, but were not limited to, assessment of activity, posture, respiration, emesis, seizure, hydration status, injection site assessment and overall body condition. At the end of the in-life portion of the study (Week 16), all animals were sacrificed and livers collected for biochemical and histopathology analyses.
# [2] = Single SC or IM injection PK study in rats; type: in vivo, Sprague Dawley rats
# Protocol: The subjects for the study were 15 male Sprague Dawley rats (8-11 weeks of age; 280-327 g at time of dosing). […] All animals were in healthy condition and admitted to the study.
# The Vehicle was a solution of 3% (w/v) polyethylene glycol 3350, 0.3% (v/v) polysorbate 80, 0.7% (w/v) sodium chloride, 0.15% (w/v) L-methionine, 10 mM sodium phosphate buffer at pH 7.4 in water. 25HC3S was mixed into the Vehicle solution to result in drug concentrations of 25, 5 and 10 mg/mL. […] The formulated test article was used within 24 hours of constitution.
# Each rat received a single IM or SC injection (2 doses) (N=5/group). The dose level for the IM injection was 25 mg/kg was administered in a dose volume of 1 mL/kg. There were two dose groups for the SC injection route. The dose levels for the SC injections were 25 and 50 mg/kg with a dose volume of […] for both groups (drug concentrations were 5 and 10 mg/mL, respectively). Whole blood samples were collected via the jugular vein or the submandibular vein at pre-dose, 0.5, 1, 2, 4, 8, 12, 24, and 32 hours (h) post dose from each rat; however, the last blood collection may have been collected by terminal cardiac puncture with the animals deeply anesthetized by isoflurane. Blood samples were placed into tubes containing K2EDTA. The blood was gently mixed to assure distribution of the anti-coagulant and the resulting plasma samples underwent analyses to quantify 25HC3 S levels. […] Assessments included, but were not limited to, assessment of activity, posture, respiration, emesis, seizure, hydration status, injection site assessment and overall body condition.
# [3] = HFD-fed hamsters, Group 3, 10 mg/kg daily oral gavage 6 weeks
# [4] = HFD-fed hamsters, Group 4, 50 mg/kg daily oral gavage 6 weeks
smiles,measurement,setting,value
"C[C@H](CCCC(C)(C)O)[C@H]1CC[C@H]2[C@@H]3CC=C4C[C@@H](OS(=O)(=O)[O-])CC[C@]4(C)[C@H]3CC[C@]12C.[Na+] [Formulation 25HC3S, 5-cholesten-3, 25-diol, 3-sulfate]",hepatic cholesterol levels,"[1]; 10 mg/kg, 6 weeks",no effect
same,hepatic cholesterol levels,"[1]; 50 mg/kg (Group 4), 6 weeks",significantly reduced
same,reduction in serum cholesterol levels,"[1]; 50 mg/kg (Group 4), 6 weeks of treatment (Week 16), not statistically significant",15-18%
same,HFD-related liver weight gain,[1]; 6 weeks of treatment,no statistically significant effect
same,HDL and LDL cholesterol,"[1]; 6 weeks of treatment, HFD-fed hamsters",reduced both HDL and LDL cholesterol in a dose-dependent fashion
same,ALT and AST levels,"[1]; 6 weeks of treatment, compared to vehicle",reduced both ALT and AST levels
same,incidence of “normal-appearing” livers at gross necropsy,[1]; Group 4 (50 mg/kg),22%
same,Hepatic Free Fatty Acids,[1]; [3],7.3 (±0.6) Meg/mg protein
same,Hepatic Total Cholesterol,[1]; [3],155.5 (±37.9) μg/mg protein
same,Hepatic Triglyceride,[1]; [3],66.1 (±23.3) μg/mg protein
same,Hepatic Free Fatty Acids,[1]; [4],6.6 (±1.4) Meg/mg protein
same,Hepatic Triglyceride,[1]; [4],46.4 (±15.6) μg/mg protein
same,Hepatic Total Cholesterol,"[1]; HFD-fed hamsters, Group 4, 50 mg/kg daily oral gavage 6 weeks, p < 0.05 compared to Group 2",75.2 (±45.7) μg/mg protein
same,clinical signs,"[1]; PO daily for 6 weeks, hamsters",did not result in any notable clinical signs
same,liver histopathology (H&E and Oil Red O),"[1]; dose-dependent, compared to HFD-fed control (Group 2)","considerably less microvesicular changes, reduced Oil Red 0 staining, and milder inflammation"
same,serum triglyceride levels,"[1]; treated groups vs vehicle across 6 weeks, not statistically significant",trending higher
same,hepatic triglyceride levels,"[1]; with increasing dosage, 6 weeks, did not reach statistical significance",Reduced
same,mean maximum concentration,[2]; IM 25 mg/kg,101.9 (±17.1) ng/mL
same,mean time to maximum plasma drug concentration,[2]; IM 25 mg/kg,10.4 (±2.2) hr
same,mean maximum concentration,[2]; SC 25 mg/kg,127.1 (±93.8) ng/mL
same,mean time to maximum plasma drug concentration,[2]; SC 25 mg/kg,7.6 (±4.6) hrs
same,mean concentration at 32 h,[2]; SC 50 mg/kg,34.2 (±13.8) ng/mL
same,mean maximum concentration,[2]; SC 50 mg/kg,76 (±15.9) ng/mL
same,mean time to maximum plasma drug concentration,[2]; SC 50 mg/kg,7.2 (±1.8) hrs
same,clinical signs,[2]; single IM or SC injection,no observable clinical signs
